Laboratory results published in the supplement of paper PMC10307832.

Columns and labels:
Test in all cases: relative viability (nuclei count vs DMSO), 5 days (fraction); higher = more cells survive
NCI-H1975 = system: NCI-H1975
How it was run: (§1)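 Medians of duplicate plates are given as relative viability. That measure is the nuclei count in treated wells divided by the count in vehicle wells. Counts were taken on 4× images of lung cancer cell lines in 1536-well plates, 5 days after pin-tool dosing the day after seeding with one drug alone or a fixed anchor-drug dose plus five library-drug doses (not always all listed) in √10 steps.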

SW 900 = system: SW 900
How it was run: as §1

NCI-H2170 = system: NCI-H2170
How it was run: as §1

NCI-H1755 = system: NCI-H1755
How it was run: as §1

A-427 = system: A-427
How it was run: as §1

NCI-H23 = system: NCI-H23
How it was run: as §1

SK-MES-1 = system: SK-MES-1
How it was run: as §1

H3255 = system: H3255
How it was run: as §1

EKVX = system: EKVX
How it was run: as §1

ChaGo-K-1 = system: ChaGo-K-1
How it was run: as §1

LOU-NH91 = system: LOU-NH91
How it was run: as §1

HCC-366 = system: HCC-366
How it was run: as §1

EMC-BAC-2 = system: EMC-BAC-2
How it was run: as §1

PC-3 [JPC-3] = system: PC-3 [JPC-3]
How it was run: as §1

NCI-H520 = system: NCI-H520
How it was run: as §1

NCI-H1792 = system: NCI-H1792
How it was run: as §1

COR-L 105 = system: COR-L 105
How it was run: as §1

LK-2 = system: LK-2
How it was run: as §1

NCI-H1734 = system: NCI-H1734
How it was run: as §1

NCI-H596 = system: NCI-H596
How it was run: as §1

NCI-H1666 = system: NCI-H1666
How it was run: as §1

NCI-H441 = system: NCI-H441
How it was run: as §1

O=C(O)c1ccc(-c2c[nH]c3ncc(-c4ccccc4)cc23)cc1C1CCCC1 + Nc1ncn([C@H]2C[C@H](O)[C@@H](CO)O2)c(=O)n1 [Decitabine] (partner 2 µM)
relative viability (NCI-H1975; first compound 0.04 µM): 0.393 | relative viability (NCI-H1975; first compound 0.1265 µM): 0.447 | relative viability (NCI-H1975; first compound 0.4 µM): 0.554 | relative viability (NCI-H1975; first compound 1.265 µM): 0.376 | relative viability (SW 900; first compound 0.04 µM): 0.437 | relative viability (SW 900; first compound 0.1265 µM): 0.456 | relative viability (SW 900; first compound 0.4 µM): 0.38 | relative viability (SW 900; first compound 1.265 µM): 0.344 | relative viability (NCI-H2170; first compound 0.04 µM): 0.459 | relative viability (NCI-H2170; first compound 0.1265 µM): 0.478 | relative viability (NCI-H2170; first compound 0.4 µM): 0.437 | relative viability (NCI-H2170; first compound 1.265 µM): 0.437 | relative viability (NCI-H1755; first compound 0.04 µM): 0.699 | relative viability (NCI-H1755; first compound 0.1265 µM): 0.753 | relative viability (NCI-H1755; first compound 0.4 µM): 0.713 | relative viability (NCI-H1755; first compound 1.265 µM): 0.705 | relative viability (A-427; first compound 0.04 µM): 0.59 | relative viability (A-427; first compound 0.1265 µM): 0.594 | relative viability (A-427; first compound 0.4 µM): 0.5 | relative viability (A-427; first compound 1.265 µM): 0.475 | relative viability (NCI-H23; first compound 0.04 µM): 0.329 | relative viability (NCI-H23; first compound 0.1265 µM): 0.256 | relative viability (NCI-H23; first compound 0.4 µM): 0.29 | relative viability (NCI-H23; first compound 1.265 µM): 0.251 | relative viability (SK-MES-1; first compound 0.04 µM): 0.335 | relative viability (SK-MES-1; first compound 0.1265 µM): 0.398 | relative viability (SK-MES-1; first compound 0.4 µM): 0.363 | relative viability (SK-MES-1; first compound 1.265 µM): 0.328 | relative viability (H3255; first compound 0.04 µM): 0.64 | relative viability (H3255; first compound 0.1265 µM): 0.477 | relative viability (H3255; first compound 0.4 µM): 0.513 | relative viability (H3255; first compound 1.265 µM): 0.495 | relative viability (EKVX; first compound 0.04 µM): 0.341 | relative viability (EKVX; first compound 0.1265 µM): 0.362 | relative viability (EKVX; first compound 0.4 µM): 0.336 | relative viability (EKVX; first compound 1.265 µM): 0.368 | relative viability (ChaGo-K-1; first compound 0.04 µM): 0.515 | relative viability (ChaGo-K-1; first compound 0.1265 µM): 0.501 | relative viability (ChaGo-K-1; first compound 0.4 µM): 0.484 | relative viability (ChaGo-K-1; first compound 1.265 µM): 0.478 | relative viability (LOU-NH91; first compound 0.04 µM): 0.815 | relative viability (LOU-NH91; first compound 0.1265 µM): 0.859 | relative viability (LOU-NH91; first compound 0.4 µM): 0.832 | relative viability (LOU-NH91; first compound 1.265 µM): 0.718 | relative viability (HCC-366; first compound 0.04 µM): 0.336 | relative viability (HCC-366; first compound 0.1265 µM): 0.342 | relative viability (HCC-366; first compound 0.4 µM): 0.363 | relative viability (HCC-366; first compound 1.265 µM): 0.3 | relative viability (EMC-BAC-2; first compound 0.04 µM): 0.948 | relative viability (EMC-BAC-2; first compound 0.1265 µM): 1.06 | relative viability (EMC-BAC-2; first compound 0.4 µM): 1.01 | relative viability (EMC-BAC-2; first compound 1.265 µM): 0.909 | relative viability (PC-3 [JPC-3]; first compound 0.04 µM): 0.824 | relative viability (PC-3 [JPC-3]; first compound 0.1265 µM): 0.835 | relative viability (PC-3 [JPC-3]; first compound 0.4 µM): 0.939 | relative viability (PC-3 [JPC-3]; first compound 1.265 µM): 0.74 | relative viability (NCI-H520; first compound 0.04 µM): 0.493 | relative viability (NCI-H520; first compound 0.1265 µM): 0.489 | relative viability (NCI-H520; first compound 0.4 µM): 0.5 | relative viability (NCI-H520; first compound 1.265 µM): 0.358 | relative viability (NCI-H1792; first compound 0.04 µM): 0.515 | relative viability (NCI-H1792; first compound 0.1265 µM): 0.51 | relative viability (NCI-H1792; first compound 0.4 µM): 0.543 | relative viability (NCI-H1792; first compound 1.265 µM): 0.457 | relative viability (COR-L 105; first compound 0.04 µM): 0.68 | relative viability (COR-L 105; first compound 0.1265 µM): 0.62 | relative viability (COR-L 105; first compound 0.4 µM): 0.703 | relative viability (COR-L 105; first compound 1.265 µM): 0.72 | relative viability (LK-2; first compound 0.04 µM): 0.253 | relative viability (LK-2; first compound 0.1265 µM): 0.327 | relative viability (LK-2; first compound 0.4 µM): 0.28 | relative viability (LK-2; first compound 1.265 µM): 0.333 | relative viability (NCI-H1734; first compound 0.04 µM): 0.528 | relative viability (NCI-H1734; first compound 0.1265 µM): 0.499 | relative viability (NCI-H1734; first compound 0.4 µM): 0.461 | relative viability (NCI-H1734; first compound 1.265 µM): 0.437 | relative viability (NCI-H596; first compound 0.04 µM): 1.05 | relative viability (NCI-H596; first compound 0.1265 µM): 0.933 | relative viability (NCI-H596; first compound 0.4 µM): 1.01 | relative viability (NCI-H596; first compound 1.265 µM): 1.74 | relative viability (NCI-H1666; first compound 0.04 µM): 0.689 | relative viability (NCI-H1666; first compound 0.1265 µM): 0.805 | relative viability (NCI-H1666; first compound 0.4 µM): 0.693 | relative viability (NCI-H1666; first compound 1.265 µM): 0.613 | relative viability (NCI-H441; first compound 0.04 µM): 0.221 | relative viability (NCI-H441; first compound 0.1265 µM): 0.254 | relative viability (NCI-H441; first compound 0.4 µM): 0.251 | relative viability (NCI-H441; first compound 1.265 µM): 0.251
